In patent US10537652B2, “Cyclic urea compounds as granzyme B inhibitors” (viDA Therapeutics Inc., priority 2014, dated 2020):

Target: T1, GzmB (Homo sapiens, UniProt P10144)
T1 construct: purchased Froelich Lab, Northshore University Health Systems Research Institute, Evanston, Ill., USA
Assay: Inhibition of Fibronectin Cleavage by GzmB (Example D7)
Assay type: biochemical
Settings: 20 nM granzyme B, 30° C.; for inhibition at 0.62 µM: inhibitor 0.62 uM, read-out: Percent Inhibition at Inhibitor Concentration 0.62 uM; for inhibition at 5.56 µM: inhibitor 5.56 uM, read-out: Percent Inhibition at Inhibitor Concentration 5.56 uM; for inhibition at 50 µM: inhibitor 50 uM, read-out: Percent Inhibition at Inhibitor Concentration 50 uM
Experimental: Black, 96 well high-binding assay plates (Griener Bio-one) were treated overnight at 4° C. with 40 uL of 8 ug/mL Hilyte Fluor 488 labeled Fibronectin (Cytoskeleton, Inc). After fibronectin coating, plates were washed 3 times in buffer (20 mM Tris-HCl, pH 7.4, 20 mM NaCl) then once with granzyme B assay buffer (50 mM HEPES, pH 7.5, 0.1% CHAPS). After washing, 50 uL of granzyme B assay buffer was added to each fibronectin-coated well. In a separate non-binding 96 well assay plate 5 uL of 20X inhibitor serial dilution stocks were added to 45 uL of 2.22x GzmB mix to establish inhibition (enzyme/inhibitor mixes were all prepared in granzyme B assay buffer and were incubated first at room temperature for 20 minutes, then at 30° C. for another 10 minutes). After incubation, 50 uL of this 2x enzyme/inhibitor mix was added to the corresponding coated well to initiate fibronectin cleavage (20 nM final granzyme B concentration, 8-point inhibitor dilution series starting at 50 uM). The assay was conducted at 30° C. in the TECAN plate reader (TECAN INFINITE® M1000 Pro), which was programmed to monitor the kinetic fluorescence polarization signal (filter set Ex/Em 470 nm/527 nm) with readings taken every minute, for 1 hour. Proteolytic activity was evaluated as the rate of fluorescence enhancement in the parallel emission over the linear range of the reaction. % Inhibition values were calculated from assay controls and the resulting data is shown in Table 6.

T1 sequence (P10144 21-247): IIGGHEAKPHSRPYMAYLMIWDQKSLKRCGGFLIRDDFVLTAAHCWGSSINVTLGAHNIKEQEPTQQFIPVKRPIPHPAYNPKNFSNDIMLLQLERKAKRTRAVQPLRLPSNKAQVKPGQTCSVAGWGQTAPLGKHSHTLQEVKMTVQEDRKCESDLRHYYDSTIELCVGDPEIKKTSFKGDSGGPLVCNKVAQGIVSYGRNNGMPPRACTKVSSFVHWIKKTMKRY

Row | Structure (SMILES) | inhibition at 0.62 µM | inhibition at 5.56 µM | inhibition at 50 µM
1 | CC[C@H](C)[C@H](NC(=O)CCC(=O)O)C(=O)NCC(=O)N1C(=O)NC[C@H]1C(=O)NCc1nn[nH]n1 [Compound C1, 4-(((2S,3S)-1-((2-((S)-5-(((2H-tetrazol-5-yl)methyl)carbamoyl)-2-oxoimidazolidin-1-yl)-2-oxoethyl)amino)-3-methyl-1-oxopentan-2-yl)amino)-4-oxobutanoic acid] | 39% | 69% | 86%
2 | CC[C@H](C)[C@H](NC(=O)CCC(=O)O)C(=O)NCC(=O)N1C(=O)N(C2CCCCC2)C[C@H]1C(=O)NCc1nn[nH]n1 [Compound C2, 4-(((2S,3S)-1-((2-((S)-5-(((2H-TETRAZOL-5-YL)METHYL)CARBAMOYL)-3-CYCLOHEXYL-2-OXOIMIDAZOLIDIN-1-YL)-2-OXOETHYL)AMINO)-3-METHYL-1-OXOPENTAN-2-YL)AMINO)-4-OXOBUTANOIC ACID] | 75% | 91% | 96%
